System: KRAS PDC multicell spheroid viability
Experiment: Anticancer human tumor 521955-158-R6-J3-PDC patient-derived pancreatic carcinoma cell line growth inhibition [KRAS2]
Conditions: for IC50: curve of first compound; for viability, T/C: stronger effect = lower value
How it was run: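 KRAS-mutant tumor cells were grown as spheroids with HUVEC endothelial cells and human MSCs as stroma. Targeted agents were tested alone and with KRAS pathway inhibitors. Doses started at or near clinical Cmax, or 10 microM, descending half-log.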

[1] = second compound 0.1 µM, first compound 0.0316 µM
[2] = second compound 0.316 µM, first compound 0.0316 µM
[3] = second compound 1 µM, first compound 0.0316 µM
[4] = second compound 3.16 µM, first compound 0.0316 µM
[5] = second compound 10 µM, first compound 0.0316 µM
[6] = second compound 0.1 µM, first compound 0.1 µM
[7] = second compound 0.1 µM, first compound 0.316 µM
[8] = second compound 0.1 µM, first compound 1 µM
[9] = second compound 0.1 µM, first compound 3.16 µM
[10] = second compound 0.1 µM, first compound 10 µM
[11] = second compound 0.316 µM, first compound 0.1 µM
[12] = second compound 0.316 µM, first compound 0.316 µM
[13] = second compound 0.316 µM, first compound 1 µM
[14] = second compound 0.316 µM, first compound 3.16 µM
[15] = second compound 0.316 µM, first compound 10 µM
[16] = second compound 1 µM, first compound 0.1 µM
[17] = second compound 1 µM, first compound 0.316 µM
[18] = second compound 1 µM, first compound 1 µM
[19] = second compound 1 µM, first compound 3.16 µM
[20] = second compound 1 µM, first compound 10 µM
[21] = second compound 3.16 µM, first compound 0.1 µM
[22] = second compound 3.16 µM, first compound 0.316 µM
[23] = second compound 3.16 µM, first compound 1 µM
[24] = second compound 3.16 µM, first compound 3.16 µM
[25] = second compound 3.16 µM, first compound 10 µM
[26] = second compound 10 µM, first compound 0.1 µM
[27] = second compound 10 µM, first compound 0.316 µM
[28] = second compound 10 µM, first compound 1 µM
[29] = second compound 10 µM, first compound 3.16 µM
[30] = second compound 10 µM, first compound 10 µM
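Also: drug exposure lasted seven days.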
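For viability, T/C in this document: 100% = DMSO vehicle wells and lower means fewer viable cells.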

SMILES: CC(=O)Nc1cccc(-n2c(=O)n(C3CC3)c(=O)c3c(Nc4ccc(I)cc4F)n(C)c(=O)c(C)c32)c1 + C=CC(=O)N1CCN(c2nc(=O)n(-c3c(C)ccnc3C(C)C)c3nc(-c4c(O)cccc4F)c(F)cc23)C(C)C1
- IC50 (second compound 0.1 µM): 0.0255 µM
- IC50 (second compound 0.316 µM): > 0.0316 µM
- IC50 (second compound 1 µM): > 0.0316 µM
- IC50 (second compound 3.16 µM): > 0.0316 µM
- IC50 (second compound 10 µM): 0.00858 µM
- viability, T/C (second compound 0.1 µM, first compound 0.0001 µM): 97.7%
- viability, T/C (second compound 0.1 µM, first compound 0.000316 µM): 96.3%
- viability, T/C (second compound 0.1 µM, first compound 0.001 µM): 92%
- viability, T/C (second compound 0.1 µM, first compound 0.00316 µM): 88.1%
- viability, T/C (second compound 0.1 µM, first compound 0.01 µM): 69.1%
- viability, T/C [1]: 45.2%
- viability, T/C (second compound 0.316 µM, first compound 0.0001 µM): 107%
- viability, T/C (second compound 0.316 µM, first compound 0.000316 µM): 99.1%
- viability, T/C (second compound 0.316 µM, first compound 0.001 µM): 95.4%
- viability, T/C (second compound 0.316 µM, first compound 0.00316 µM): 83.7%
- viability, T/C (second compound 0.316 µM, first compound 0.01 µM): 72.8%
- viability, T/C [2]: 50.5%
- viability, T/C (second compound 1 µM, first compound 0.0001 µM): 102%
- viability, T/C (second compound 1 µM, first compound 0.000316 µM): 99.9%
- viability, T/C (second compound 1 µM, first compound 0.001 µM): 98.5%
- viability, T/C (second compound 1 µM, first compound 0.00316 µM): 88.1%
- viability, T/C (second compound 1 µM, first compound 0.01 µM): 83.4%
- viability, T/C [3]: 51%
- viability, T/C (second compound 3.16 µM, first compound 0.0001 µM): 84.4%
- viability, T/C (second compound 3.16 µM, first compound 0.000316 µM): 92.2%
- viability, T/C (second compound 3.16 µM, first compound 0.001 µM): 91.9%
- viability, T/C (second compound 3.16 µM, first compound 0.00316 µM): 90.7%
- viability, T/C (second compound 3.16 µM, first compound 0.01 µM): 71.6%
- viability, T/C [4]: 52.2%
- viability, T/C (second compound 10 µM, first compound 0.0001 µM): 64.4%
- viability, T/C (second compound 10 µM, first compound 0.000316 µM): 69.8%
- viability, T/C (second compound 10 µM, first compound 0.001 µM): 58.4%
- viability, T/C (second compound 10 µM, first compound 0.00316 µM): 58.4%
- viability, T/C (second compound 10 µM, first compound 0.01 µM): 46.3%
- viability, T/C [5]: 41%

SMILES: CCNC(=O)CC1N=C(c2ccc(Cl)cc2)c2cc(OC)ccc2-n2c(C)nnc21 (stereo not given) + CNCc1ccccc1-c1csc(C(C)Nc2nc(C)nc3cc(OC)c(OC)cc23)c1
- IC50 (second compound 0.1 µM): > 10 µM
- IC50 (second compound 0.316 µM): > 10 µM
- IC50 (second compound 1 µM): > 10 µM
- IC50 (second compound 3.16 µM): < 0.0316 µM
- IC50 (second compound 10 µM): < 0.0316 µM
- viability, T/C [1]: 96.3%
- viability, T/C [6]: 90.5%
- viability, T/C [7]: 67.6%
- viability, T/C [8]: 69.5%
- viability, T/C [9]: 68.1%
- viability, T/C [10]: 73.8%
- viability, T/C [2]: 82.3%
- viability, T/C [11]: 71.9%
- viability, T/C [12]: 72.4%
- viability, T/C [13]: 61%
- viability, T/C [14]: 65.8%
- viability, T/C [15]: 69.5%
- viability, T/C [3]: 71.3%
- viability, T/C [16]: 62%
- viability, T/C [17]: 61.6%
- viability, T/C [18]: 62.8%
- viability, T/C [19]: 74.3%
- viability, T/C [20]: 73%
- viability, T/C [4]: 0.29%
- viability, T/C [21]: 0.34%
- viability, T/C [22]: 0.34%
- viability, T/C [23]: 0.43%
- viability, T/C [24]: 0.28%
- viability, T/C [25]: 0.8%
- viability, T/C [5]: 0.2%
- viability, T/C [26]: 0.18%
- viability, T/C [27]: 0.16%
- viability, T/C [28]: 0.17%
- viability, T/C [29]: 0.21%
- viability, T/C [30]: 0.28%

SMILES: COC(=O)c1ccc2c(C(=Nc3ccc(N(C)C(=O)CN4CCN(C)CC4)cc3)c3ccccc3)c(O)[nH]c2c1 + CC1OCC2(CCN(c3cnc(Sc4ccnc(N)c4Cl)c(N)n3)CC2)C1N
- IC50 (second compound 0.1 µM): 2.59 µM
- IC50 (second compound 0.316 µM): 2.15 µM
- IC50 (second compound 1 µM): 2.12 µM
- IC50 (second compound 3.16 µM): 2.15 µM
- IC50 (second compound 10 µM): 1.47 µM
- viability, T/C [1]: 79.8%
- viability, T/C [6]: 88.5%
- viability, T/C [7]: 108%
- viability, T/C [8]: 114%
- viability, T/C [9]: 40%
- viability, T/C [10]: 1.22%
- viability, T/C [2]: 82.5%
- viability, T/C [11]: 102%
- viability, T/C [12]: 110%
- viability, T/C [13]: 113%
- viability, T/C [14]: 23.6%
- viability, T/C [15]: 0.76%
- viability, T/C [3]: 106%
- viability, T/C [16]: 104%
- viability, T/C [17]: 111%
- viability, T/C [18]: 95.6%
- viability, T/C [19]: 25.5%
- viability, T/C [20]: 0.47%
- viability, T/C [4]: 101%
- viability, T/C [21]: 120%
- viability, T/C [22]: 103%
- viability, T/C [23]: 99.2%
- viability, T/C [24]: 25.4%
- viability, T/C [25]: 0.29%
- viability, T/C [5]: 94.8%
- viability, T/C [26]: 94.8%
- viability, T/C [27]: 83.7%
- viability, T/C [28]: 72.2%
- viability, T/C [29]: 6.64%
- viability, T/C [30]: 2.18%

SMILES: CC1(C)CCC(CN2CCN(c3ccc(C(=O)NS(=O)(=O)c4ccc(NCC5CCOCC5)c([N+](=O)[O-])c4)c(Oc4cnc5[nH]ccc5c4)c3)CC2)=C(c2ccc(Cl)cc2)C1 + CC1OCC2(CCN(c3cnc(Sc4ccnc(N)c4Cl)c(N)n3)CC2)C1N
- IC50 (second compound 0.1 µM): 7.01 µM
- IC50 (second compound 0.316 µM): 5.82 µM
- IC50 (second compound 1 µM): 5.51 µM
- IC50 (second compound 3.16 µM): 4.36 µM
- IC50 (second compound 10 µM): 2.84 µM
- viability, T/C [1]: 96%
- viability, T/C [6]: 89.7%
- viability, T/C [7]: 95.3%
- viability, T/C [8]: 77.6%
- viability, T/C [9]: 70.5%
- viability, T/C [10]: 41.3%
- viability, T/C [2]: 86.2%
- viability, T/C [11]: 98.2%
- viability, T/C [12]: 89%
- viability, T/C [13]: 87%
- viability, T/C [14]: 62%
- viability, T/C [15]: 39.3%
- viability, T/C [3]: 102%
- viability, T/C [16]: 94.7%
- viability, T/C [17]: 103%
- viability, T/C [18]: 99%
- viability, T/C [19]: 71.1%
- viability, T/C [20]: 27.3%
- viability, T/C [4]: 115%
- viability, T/C [21]: 120%
- viability, T/C [22]: 121%
- viability, T/C [23]: 116%
- viability, T/C [24]: 64.2%
- viability, T/C [25]: 13.1%
- viability, T/C [5]: 107%
- viability, T/C [26]: 109%
- viability, T/C [27]: 114%
- viability, T/C [28]: 107%
- viability, T/C [29]: 44.3%
- viability, T/C [30]: 3.41%
